Test results: article PMC10095442, “Intelligent De Novo Design of Novel Antimicrobial Peptides against Antibiotic-Resistant Bacteria Strains” (International Journal of Molecular Sciences, 2023)
Residues, ends and D or L forms follow the SMILES beside them.

How the values were obtained:
[1] = test system: methicillin-resistant S. aureus (N07-10-0043); format: cell-based, Staphylococcus aureus; conditions: S. aureus MRSA N07-10-0043 (methicillin-resistant clinical isolate); L.B. medium, approx. 10^5 CFU/mL, overnight incubation; at least three times
Protocol: (§1) MIC assays were conducted to determine the antibacterial spectrum of these peptides. MIC is defined as the minimum concentration of a reagent, viz., peptide, in this study, required to inhibit bacterial growth after overnight incubation. Microbial strains were cultured in an L.B. medium, and midlogarithmic-phase organisms were used in the antibacterial assays. All bacteria were inoculated in an L.B. medium (approximately 10^5 CFU/mL), and MIC assays were performed with various concentrations of each peptide. All activity measurements were conducted at least three times.

[2] = test system: methicillin-susceptible S. aureus (S01-10-0202); format: cell-based, Staphylococcus aureus; conditions: methicillin-susceptible (S01-10-0202)
Protocol: as §1

[3] = test system: carbapenem-resistant P. aeruginosa (M06-06-0213); format: cell-based, Pseudomonas aeruginosa; conditions: P. aeruginosa M06-06-0213 (carbapenem-resistant clinical isolate); L.B. medium, approx. 10^5 CFU/mL, overnight incubation; at least three times
Protocol: as §1

[4] = test system: carbapenem-susceptible P. aeruginosa (S07-10-0059); format: cell-based, Pseudomonas aeruginosa; conditions: carbapenem-susceptible (S07-10-0059)
Protocol: as §1

Measured: Antibacterial activity (MIC)

CC(C)[C@@H]1NC(=O)[C@H](CCCNC(=N)N)NC(=O)[C@H](Cc2ccccc2)NC(=O)[C@@H](NC(=O)[C@H](Cc2c[nH]c3ccccc23)NC(=O)[C@H](CCCNC(=N)N)NC(=O)[C@@H](N)CCCNC(=N)N)CSSC[C@@H](C(=O)N[C@@H](CCCNC(=N)N)C(N)=O)NC(=O)[C@H](CCCCN)NC(=O)[C@H](CCCNC(=N)N)NC(=O)[C@H](Cc2ccc(O)cc2)NC(=O)[C@@H]2CSSC[C@H](NC1=O)C(=O)N[C@@H](Cc1ccc(O)cc1)C(=O)N[C@@H](CCCNC(=N)N)C(=O)NCC(=O)N[C@@H](Cc1ccccc1)C(=O)N2 [polyphemusin I] (HELM PEPTIDE1{R.R.W.C.F.R.V.C.Y.R.G.F.C.Y.R.K.C.R.[am]}$PEPTIDE1,PEPTIDE1,4:R3-17:R3|PEPTIDE1,PEPTIDE1,8:R3-13:R3$$$V2.0; N-terminus and C-terminus assumed)
>50 µg/mL: [1] | [2] | [3] | [4]
